Results taken from article PMC10214512 (2023).

Key:
[1] = system: Cy5 NRAS 5'UTR G4 (RNA, G4) UGUGGGAGGGGCGGGUCUGGGUGC; experiment: MST thermophoresis; conditions: 100 mM KCl, 10 mM MgCl2; binding only at millimolar concentrations, KD not established; label of G4 construct not stated for this assay
[2] = system: Cy5 NRAS 5'UTR G4 (RNA, G4) UGUGGGAGGGGCGGGUCUGGGUGC; experiment: fluorescence quenching (Cy5); conditions: 100 mM KCl, 10 mM MgCl2
[3] = 20 mM HEPES pH 7.4, 25 °C, group value close to 200 nM

Compound | KD [2, 3] | also measured
[N-]=[N+]=NCCOCCOCCOCCOCCOCCn1ccnc1 | – | binding [1]: weak
NCCOc1cc(C(=O)Nc2cc(OCCN)c3ccccc3n2)nc(C(=O)Nc2cc(OCCN)c3ccccc3n2)c1 | – | KD ([2]; 20 mM HEPES pH 7.4, 25 °C read after 30 min at 4 °C, 50 nM RNA): 26 nM
NCCOc1cc(NC(=O)c2cc(OCc3cn(CCC(=O)O)nn3)cc(C(=O)Nc3cc(OCCN)c4ccccc4n3)n2)nc2ccccc12 | 191 nM | –

Second part, led by results:

KD [2, 3] | Compound | also measured
137 nM | NCCOc1cc(NC(=O)c2cc(OCc3cn(CCOCCOCCOCCOCCOCCn4ccnc4)nn3)cc(C(=O)Nc3cc(OCCN)c4ccccc4n3)n2)nc2ccccc12 | –
211 nM | NCCOc1cc(NC(=O)c2cc(OCc3cn(CCOCCOCCOCCn4ccnc4)nn3)cc(C(=O)Nc3cc(OCCN)c4ccccc4n3)n2)nc2ccccc12 | –
